This note sets out measurements from US12252488B2 (Nimbus Saturn, Inc., priority 2021, dated 2025).

The term IC50 denotes the concentration needed to halve the response being measured.

T1 sequence (Q92918 whole entry): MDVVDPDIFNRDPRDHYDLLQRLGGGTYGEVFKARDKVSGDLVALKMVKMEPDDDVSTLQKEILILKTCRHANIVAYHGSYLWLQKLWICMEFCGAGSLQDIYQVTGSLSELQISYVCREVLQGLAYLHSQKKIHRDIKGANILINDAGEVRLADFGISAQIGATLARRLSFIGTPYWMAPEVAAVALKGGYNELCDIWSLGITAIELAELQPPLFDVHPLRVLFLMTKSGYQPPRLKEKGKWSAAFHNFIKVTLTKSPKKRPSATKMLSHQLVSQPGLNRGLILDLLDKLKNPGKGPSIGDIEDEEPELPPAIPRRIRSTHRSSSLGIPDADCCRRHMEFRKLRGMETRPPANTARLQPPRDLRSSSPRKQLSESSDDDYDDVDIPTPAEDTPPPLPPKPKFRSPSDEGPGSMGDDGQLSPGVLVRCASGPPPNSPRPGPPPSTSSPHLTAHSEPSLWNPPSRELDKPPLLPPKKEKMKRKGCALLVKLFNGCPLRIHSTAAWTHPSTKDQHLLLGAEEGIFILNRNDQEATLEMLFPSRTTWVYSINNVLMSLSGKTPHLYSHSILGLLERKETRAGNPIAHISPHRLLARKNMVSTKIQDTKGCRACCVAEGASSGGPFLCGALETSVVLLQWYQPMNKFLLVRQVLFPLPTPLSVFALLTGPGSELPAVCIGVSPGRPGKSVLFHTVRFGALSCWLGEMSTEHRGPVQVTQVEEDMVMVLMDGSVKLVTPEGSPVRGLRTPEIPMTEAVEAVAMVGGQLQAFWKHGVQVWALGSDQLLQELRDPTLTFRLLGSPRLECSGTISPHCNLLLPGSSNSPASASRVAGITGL

This assay addresses T1, HPK1 (Homo sapiens, UniProt Q92918).
T1 construct: purchased Invitrogen
Briefly: HPK1 biochemical enzyme assay (microfluidic mobility shift assay). The conditions noted are these: 1000 uM (1 mM) ATP; Caliper mobility shift; 1.5 nM HPK1; 30 min preincubation; read-out: HPK1 1000UMATP caliper IC50. The essentials:
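IC50 values, grouped into activity categories, come from 10-point titrations (top final 3 μM) preincubated 30 min with 1.5 nM enzyme and substrate at pH 7.4. ATP (1 mM), substrate (1 μM) and MgCl2 (5 mM) then added; after 60 min at RT, product separated by microfluidic mobility shift.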
On to `CC1(C(=O)Nc2ccc(-c3cc(Nc4ccc(N5CCC(O)CC5)cn4)c4c(=O)[nH]ccc4n3)c(F)c2)CCC1` [I-211, N-[3-fluoro-4-[4-[[5-(4-hydroxy-1-piperidyl)-2-pyridyl]amino]-5-oxo-6H-1,6-naphthyridin-2-yl]phenyl]-1-methyl-cyclobutane-carboxamide], for which the half-maximal inhibitory concentration (IC50) was over 1000 nM.

Regarding `O=C(Nc1ccc(-c2cc(Nc3ccc(C4CC4)cn3)c3c(=O)[nH]ccc3n2)c(F)c1)C1CCCCC1` [I-212, N-[4-[4-[(5-cyclopropyl-2-pyridyl)amino]-5-oxo-6H-1,6-naphthyridin-2-yl]-3-fluoro-phenyl] cyclohexane-carboxamide], the IC50 lay in the range of 100 to 1000 nM.

Take `CN1C(=O)Cc2cc(-c3cc(Nc4ccc(N5CCC(O)CC5)cn4)c4c(=O)[nH]ccc4n3)cnc21` [I-213, 4-[[5-(4-hydroxy-1-piperidyl)-2-pyridyl]amino]-2-(1-methyl-2-oxo-3H-pyrrolo[2,3-b]pyridin-5-yl)-6H-1,6-naphthyridin-5-one]: the IC50 was in the range of 100 to 1000 nM.

For `CN(C(=O)C1(C)CC1)c1ccc(-c2cc(Nc3ccc(N4CCC(O)CC4)cn3)c3c(=O)[nH]ccc3n2)c(F)c1` [I-214, N-[3-fluoro-4-[4-[[5-(4-hydroxy-1-piperidyl)-2-pyridyl]amino]-5-oxo-6H-1,6-naphthyridin-2-yl]phenyl]-N,1-dimethyl-cyclopropane-carboxamide], the IC50 is 100 to 1000 nM.

On to `COc1cc(-c2cc(Nc3ccc(N4CCC(O)CC4)cn3)c3c(=O)[nH]ccc3n2)c(F)cc1CN(C)C` [I-215, 2-(4-((Dimethylamino)methyl)-2-fluoro-5-methoxyphenyl)-4-((5-(4-hydroxypiperidin-1-yl)pyridin-2-yl)amino)-1,6-naphthyridin-5(6H)-one], for which the IC50 was in the range of 100 to 1000 nM.

Consider `COc1cc(-c2cc(Nc3ccc(N4CCC(O)CC4)cn3)c3c(=O)[nH]ccc3n2)c(F)cc1CN1CCCCC1` [I-216, 2-[2-fluoro-5-methoxy-4-(1-piperidyl-methyl)phenyl]-4-[[5-(4-hydroxy-1-piperidyl)-2-pyridyl]amino]-6H-1,6-naphthyridin-5-one], for which the IC50 was over 1000 nM.

As for `CNCc1ccc(F)c(-c2cc(Nc3ccc(N4CCC(O)CC4)cn3)c3c(=O)[nH]ccc3n2)c1` [I-217, 2-[2-fluoro-5-(methyl-amino-methyl)phenyl]-4-[[5-(4-hydroxy-1-piperidyl)-2-pyridyl]amino]-6H-1,6-naphthyridin-5-one], the concentration for half-maximal inhibition (IC50) is 100 to 1000 nM.

For `CNCc1ccc(-c2cc(Nc3ccc(N4CCC(O)CC4)cn3)c3c(=O)[nH]ccc3n2)c(F)c1` [I-218, 2-[2-fluoro-4-(methyl-amino-methyl)phenyl]-4-[[5-(4-hydroxy-1-piperidyl)-2-pyridyl]amino]-6H-naphthyridin-5-one], the IC50 is at most 100 nM.

As to `CC1(C(=O)Nc2ccc(-c3cc(Nc4ccc(N5CCNCC5)cn4)c4c(=O)[nH]ccc4n3)c(F)c2)CCC1` [I-219, N-[3-fluoro-4-[5-oxo-4-[(5-piperazin-1-yl-2-pyridyl)amino]-6H-1,6-naphthyridin-2-yl]phenyl]-1-methyl-cyclobutane-carboxamide], the half-maximal inhibitory concentration (IC50) was at most 100 nM.

Turning to `O=c1[nH]ccc2nc(-c3c(F)ccc4c3CCNC4)cc(Nc3ccc(N4CCC(O)CC4)cn3)c12` [I-220, 2-(6-fluoro-1,2,3,4-tetrahydro-isoquinolin-5-yl)-4-[[5-(4-hydroxy-1-piperidyl)-2-pyridyl]amino]-6H-1,6-naphthyridin-5-one], the IC50 is at most 100 nM.

Regarding `CNC1(c2ccc(F)c(-c3cc(Nc4ccc(N5CCC(O)CC5)cn4)c4c(=O)[nH]ccc4n3)c2)CC1` [I-221, 2-[2-fluoro-5-[1-(methyl-amino)cyclopropyl]phenyl]-4-[[5-(4-hydroxy-1-piperidyl)-2-pyridyl]amino]-6H-1,6-naphthyridin-5-one], the IC50 lay in the range of 100 to 1000 nM.

`O=C(Nc1ccc(-c2cc(Nc3ccc(N4CCC(O)CC4)cn3)c3c(=O)[nH]ccc3n2)c(F)c1)C1(C(F)F)CC1` [I-222]: the concentration for half-maximal inhibition (IC50) is at most 100 nM.

For the compound `CCC1(C(=O)Nc2ccc(-c3cc(Nc4ccc(N5CCC(O)CC5)cn4)c4c(=O)[nH]ccc4n3)c(F)c2)CC1` [I-223, 1-ethyl-N-[3-fluoro-4-[4-[[5-(4-hydroxy-1-piperidyl)-2-pyridyl]amino]-5-oxo-6H-1,6-naphthyridin-2-yl]phenyl] cyclopropane-carboxamide], the IC50 was at most 100 nM.

`CNC1CCCc2c1ccc(F)c2-c1cc(Nc2ccc(N3CCC(O)CC3)cn2)c2c(=O)[nH]ccc2n1` (centres unmarked) [I-224, 2-[6-fluoro-1-(methyl-amino)tetralin-5-yl]-4-[[5-(4-hydroxy-1-piperidyl)-2-pyridyl]amino]-6H-1,6-naphthyridin-5-one]: the half-maximal inhibitory concentration (IC50) fell in the range of 100 to 1000 nM.

As to `COc1cc(-c2cc(Nc3cc(C4CCOC4)[nH]n3)c3c(=O)[nH]ccc3n2)c(F)cc1C(=O)N1CCCCC1` (centres unmarked) [I-225, 2-[2-fluoro-5-methoxy-4-(piperidine-1-carbonyl)phenyl]-4-[(5-THF-3-yl-1H-pyrazol-3-yl)amino]-6H-1,6-naphthyridin-5-one], the IC50 is over 1000 nM.

As to `O=C1Cc2cc(-c3cc(Nc4ccc(N5CCC(O)CC5)cn4)c4c(=O)[nH]ccc4n3)cnc2N1` [I-226, 4-[[5-(4-hydroxy-1-piperidyl)-2-pyridyl]amino]-2-(2-oxo-1,3-dihydro-pyrrolo[2,3-b]pyridin-5-yl)-6H-1,6-naphthyridin-5-one], the IC50 was at most 100 nM.

As to `CN1CCN(c2ccc(Nc3cc(-c4cnc5c(c4)CC(=O)N5)nc4cc[nH]c(=O)c34)nc2)CC1` [I-227, 4-[[5-(4-methyl-piperazin-1-yl)-2-pyridyl]amino]-2-(2-oxo-1,3-dihydro-pyrrolo[2,3-b]pyridin-5-yl)-6H-1,6-naphthyridin-5-one], the half-maximal inhibitory concentration (IC50) is at most 100 nM.

For the compound `CCn1ccc(Nc2cc(-c3cc(OC)c(C(=O)N4CCCCC4)cc3F)nc3cc[nH]c(=O)c23)nc1=O` [I-228, 4-((1-ethyl-2-oxo-1,2-dihydropyrimidin-4-yl)amino)-2-(2-fluoro-5-methoxy-4-(piperidine-1-carbonyl)phenyl)-1,6-naphthyridin-5(6H)-one], the half-inhibitory concentration (IC50) was at most 100 nM.

With `COc1cc(-c2cc(Nc3ccc(N4C[C@H]5COC[C@H]5C4)cn3)c3c(=O)[nH]ccc3n2)c(F)cc1C(=O)N1CCCCC1` [I-229, 4-[[5-[(3aR,6aS)-1,3,3a,4,6,6a-hexahydro-furo[3,4-c]pyrrol-5-yl]-2-pyridyl]amino]-2-[2-fluoro-5-methoxy-4-(piperidine-1-carbonyl)phenyl]-6H-1,6-naphthyridin-5-one], the IC50 lay within 100 to 1000 nM.

As for `COc1cc(-c2cc(Nc3ccc(N4CCC(O)CC4)cn3)c3c(=O)[nH]ccc3n2)c(F)cc1C(=O)N(C)C` [I-230, 5-fluoro-4-[4-[[5-(4-hydroxy-1-piperidyl)-2-pyridyl]amino]-5-oxo-6H-1,6-naphthyridin-2-yl]-2-methoxy-N,N-dimethyl-benzamide], the IC50 is at most 100 nM.

Regarding `O=C(c1cc(F)c(-c2cc(Nc3ccc(N4CCC(O)CC4)cn3)c3c(=O)[nH]ccc3n2)cc1F)N1CCCCC1` [I-231, 2-[2,5-difluoro-4-(piperidine-1-carbonyl)phenyl]-4-[[5-(4-hydroxy-1-piperidyl)-2-pyridyl]amino]-6H-1,6-naphthyridin-5-one], the 50% inhibitory concentration (IC50) lay in the range of 100 to 1000 nM.

In the case of `COc1cc(-c2cc(Nc3ccc(N4CCCCC4)cn3)c3c(=O)[nH]ccc3n2)c(F)cc1C(=O)N1CCCCC1` [I-232, 2-[2-fluoro-5-methoxy-4-(piperidine-1-carbonyl)phenyl]-4-[[5-(1-piperidyl)-2-pyridyl]amino]-6H-1,6-naphthyridin-5-one], the concentration for half-maximal inhibition (IC50) is at most 100 nM.

For `O=C(C1CC1)N1CCC2(CCN(c3cc(Nc4ccc(N5CCC(O)CC5)cn4)c4c(=O)[nH]ccc4n3)CC2)C1` [I-233, 2-[2-(cyclopropanecarbonyl)-2,8-diazaspiro[4.5]decan-8-yl]-4-[[5-(4-hydroxy-1-piperidyl)-2-pyridyl]amino]-6H-1,6-naphthyridin-5-one], the IC50 was at most 100 nM.

With `COc1cc(-c2cc(Nc3cccc(N4CCNCC4)n3)c3c(=O)[nH]ccc3n2)c(F)cc1C(=O)N1CCCCC1` [I-234, 2-[2-fluoro-5-methoxy-4-(piperidine-1-carbonyl)phenyl]-4-[(6-piperazin-1-yl-2-pyridyl)amino]-6H-1,6-naphthyridin-5-one], the IC50 is at most 100 nM.

Regarding `O=c1[nH]ccc2nc(N3CCC4(CCNC4)CC3)cc(Nc3ccc(N4CCC(O)CC4)cn3)c12` [I-235, 2-(2,8-diazaspiro[4.5]decan-8-yl)-4-[[5-(4-hydroxy-1-piperidyl)-2-pyridyl]amino]-6H-1,6-naphthyridin-5-one], the concentration for half-maximal inhibition (IC50) was at most 100 nM.

With `O=c1[nH]ccc2nc(N3CCC4(CCCN4)CC3)cc(Nc3ccc(N4CCC(O)CC4)cn3)c12` [I-236, 2-(1,8-diazaspiro [4.5]decan-8-yl)-4-[[5-(4-hydroxy-1-piperidyl)-2-pyridyl]amino]-6H-1,6-naphthyridin-5-one], the IC50 is 100 to 1000 nM.

For `CN(C)C1CCc2c1ccc(-c1cc(Nc3ccc(N4CCC(O)CC4)cn3)c3c(=O)[nH]ccc3n1)c2F` (centres unmarked) [I-237, 2-[1-(dimethyl-amino)-4-fluoro-indan-5-yl]-4-[[5-(4-hydroxy-1-piperidyl)-2-pyridyl]amino]-6H-1,6-naphthyridin-5-one], the IC50 lay in the range of 100 to 1000 nM.

`CN(C)C1CCc2cc(-c3cc(Nc4ccc(N5CCC(O)CC5)cn4)c4c(=O)[nH]ccc4n3)c(F)cc21` (centres unmarked) [I-238, 2-[1-(dimethyl-amino)-6-fluoro-indan-5-yl]-4-[[5-(4-hydroxy-1-piperidyl)-2-pyridyl]amino]-6H-1,6-naphthyridin-5-one]: the IC50 was 100 to 1000 nM.

For the compound `O=c1[nH]ccc2nc(N3CCC4(CCCNC4)CC3)cc(Nc3ccc(N4CCC(O)CC4)cn3)c12` [I-239, 2-(2,9-diazaspiro [5.5]undecan-9-yl)-4-[[5-(4-hydroxy-1-piperidyl)-2-pyridyl]amino]-6H-1,6-naphthyridin-5-one], the concentration for half-maximal inhibition (IC50) was in the range of 100 to 1000 nM.
